Patent US8450298B2, “Aminoalcohol lipidoids and uses thereof” (Massachusetts Institute of Technology, priority 2008, dated 2013)

Test system: Factor VII
Assay: In vivo Factor VII knockdown with anti-Factor VII siRNA in lipidoid formulations
Conditions: mice, 0.01 mg/kg siRNA dosing
Method: C57BL/6 mice (Charles River Labs) received either saline or siRNA in lipidoid formulations via tail vein injection at a volume of 0.01 ml/g. […] At 48 hours after administration, animals were anesthetized by isofluorane inhalation and blood was collected into serum separator tubes by retroorbital bleed. Serum levels of Factor VII protein were determined in samples using a chromogenic assay (Biophen FVII, Aniara Corporation) according to the manufacturer's protocols. A standard curve was generated using serum collected from saline-treated animals. Exemplary results are depicted in FIG. 7.
To test siRNA delivery efficacy in vivo, a mouse model for liver delivery was used. […] Once produced by hepatocytes, Factor VII is released into the bloodstream, and a baseline level of expression can be determined by simple blood draw and quantification of protein levels by colorimetric assay. By delivering anti-Factor VII siRNA to hepatocytes, knockdown of this model protein can be achieved and a percentage of silencing can be determined by comparison to an untreated control. […]
Following the initial in vivo screening experiments, two compounds were used to conduct a dose response. […] In addition to Factor VII measurement, the change in mouse body weight is recorded and a loss in weight is generally considered formulation induced toxicity (See FIG. 13b and FIG. 14b). […]

SMILES: CCCCCCCCCCC(O)CN(CCN1CCN(CCN(CC(O)CCCCCCCCCC)CC(O)CCCCCCCCCC)CC1)CCN(CC(O)CCCCCCCCCC)CC(O)CCCCCCCCCC (centres unmarked) [C12-200]
- difference between Factor VII results of racemic C12-200 and those of the R or S forms: insignificant

SMILES: CCCCCCCCCC[C@@H](O)CN(CCN1CCN(CCN(C[C@H](O)CCCCCCCCCC)C[C@H](O)CCCCCCCCCC)CC1)CCN(C[C@H](O)CCCCCCCCCC)C[C@H](O)CCCCCCCCCC [(R)-C12-200]
- reduction of systemic Factor VII (preliminary): approximately 50%
